Earlier results in patent US10813571B2, “Devices and methods for non-invasive monitoring of substance in a body” (TATA C[…] LIMITED, priority 2015, dated 2020).

Settings: in the user's (smoker's) body; as known in the art

## CN1CCCC1c1cccnc1 (stereo not shown) [nicotine]
  half-life of nicotine in the body (t1/2): 1 to 2 h
